Results on 15 compounds are retold here after patent US10538555B2, “Macrocyclic inhibitors of the PD-1/PD-L1 and CD80(B7-1)/PD-L1 protein/protein interactions” (BRISTOL-MYERS SQUIBB COMPANY, priority 2014, dated 2020).

Like-named read-outs stand apart in the source and are kept apart here. *1 amine or outer side, *2 acyl side, *3 side chain or, on linkers, in order; H or OH if unused. Where a SMILES comes first, the peptide text is derived from it. Bridges are numbered along the chain shown (N, C = ends). [ ]: non-standard residue; d: D form. ξ: configuration not given here. Trp(βS-Me) = C[C@@H](c1c[nH]c2ccccc12)[C@H](N)C(=O)O; Phe(3,4,5-F3) = N[C@@H](Cc1cc(F)c(F)c(F)c1)C(=O)O; NMePhe(4-F) = CN[C@@H](Cc1ccc(F)cc1)C(=O)O; NMeW = CN[C@@H](Cc1c[nH]c2ccccc12)C(=O)O; Phe(4-F) = N[C@@H](Cc1ccc(F)cc1)C(=O)O; Pro(4R-NH2) = N[C@H]1CN[C@H](C(=O)O)C1; d(cisHyp) = O=C(O)[C@H]1C[C@@H](O)CN1; NMeIle(3ξ) = CCC(C)[C@H](NC)C(=O)O; Hyp = O=C(O)[C@@H]1C[C@@H](O)CN1; NMeF = CN[C@@H](Cc1ccccc1)C(=O)O; X1 = O=C([C@H]1COCCN1[*:1])[*:2]; dHyp = O=C(O)[C@H]1C[C@H](O)CN1; NMeL = CN[C@@H](CC(C)C)C(=O)O; NMeNle = CCCC[C@H](NC)C(=O)O; dPip = O=C(O)[C@H]1CCCCN1; hSer = N[C@@H](CCO)C(=O)O; NMeA = CN[C@@H](C)C(=O)O; Orn = NCCC[C@H](N)C(=O)O; Dab = NCC[C@H](N)C(=O)O; Dap = NC[C@H](N)C(=O)O; ξC = NC(CS)C(=O)O

The target in the assay is T1, Human PD-L1/PD-1 (Homo sapiens, UniProt Q9NZQ7).
T1 construct: TVMV protease cleavage site (C); made in house; host or cells: HEK293T cells
T1 sequence (Q9NZQ7 with tags, fused parts or gaps): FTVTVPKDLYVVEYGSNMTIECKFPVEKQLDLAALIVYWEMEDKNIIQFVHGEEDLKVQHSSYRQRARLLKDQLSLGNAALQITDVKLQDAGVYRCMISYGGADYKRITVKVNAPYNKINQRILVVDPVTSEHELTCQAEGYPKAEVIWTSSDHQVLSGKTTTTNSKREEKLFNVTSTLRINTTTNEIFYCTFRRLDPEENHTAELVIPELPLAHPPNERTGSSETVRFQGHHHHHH
The assay is described as follows: HTRF Human PD-L1/PD-1 binding assay (PD-1-Ig/PD-L1-His). The following applies: PD-L1-His 10 nM, PD-1-Ig 20 nM. In outline: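 Competition of macrocyclic peptides for PD-1/PD-L1 binding measured by HTRF in dPBS containing 0.1% BSA and 0.05% Tween-20. Compound and PD-L1-His (10 nM final) incubated 15 min before PD-1-Ig (20 nM final) and a further 15 min.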
In general terms: Time-resolved FRET reads energy transfer from a long-lived donor to a nearby acceptor.

[1] abbreviates: class symbol, read-out: HTRF Human PD-L1/PD-1 Binding Assay IC50 Range.

As to `CCCC[C@H]1C(=O)N(C)[C@@H](CCCC)C(=O)N[C@@H](CC(=O)O)C(=O)N[C@H](C(=O)NCC(N)=O)CSCC(=O)N[C@@H](Cc2ccc(O)cc2)C(=O)N2CCCCC2C(=O)N[C@@H](CC(=O)O)C(=O)N2CCC[C@H]2C(=O)N[C@@H](Cc2c[nH]cn2)C(=O)N[C@@H](CCCN)C(=O)N2C[C@H](O)C[C@H]2C(=O)N[C@@H](Cc2c[nH]c3ccccc23)C(=O)N[C@@H](CCCN)C(=O)N[C@@H](Cc2csc3ccccc23)C(=O)N1C` (stereo partly drawn) [Example 1533], the IC50 under setting [1] is 0.001 to 0.0099 µM.
On to `CCCC[C@H]1C(=O)N[C@@H](CN)C(=O)N[C@H](C(=O)NCC(N)=O)CSCC(=O)N[C@@H](Cc2ccc(O)cc2)C(=O)N(C)[C@@H](C)C(=O)N[C@@H](CC(=O)O)C(=O)N2CCC[C@H]2C(=O)N[C@@H](Cc2c[nH]cn2)C(=O)N[C@@H](CCC(=O)O)C(=O)N2C[C@H](O)C[C@H]2C(=O)N[C@@H](Cc2c[nH]c3ccccc23)C(=O)N[C@@H](CCN)C(=O)N[C@@H](Cc2c[nH]c3ccccc23)C(=O)N(C)[C@@H](Cc2c[nH]c3ccccc23)C(=O)N1C` [Example 5229] ({CH2CO}-Y[NMeA]DPHE[Hyp]W[Dab]W[NMeW][NMeNle][Dap]CG-NH2; thioether N-14), for which, under setting [1], the IC50 fell in the range of 0.001 to 0.0099 µM.
As for `CCCC[C@H]1C(=O)N[C@@H](CC(N)=O)C(=O)N2CCC[C@H]2C(=O)N[C@@H](CO)C(=O)N[C@@H](CCO)C(=O)N2CCC[C@H]2C(=O)N[C@@H](Cc2c[nH]c3ccccc23)C(=O)N[C@@H](CN)C(=O)N[C@@H](Cc2c[nH]c3ccccc23)C(=O)N(C)[C@@H](C)C(=O)N(C)[C@@H](C)C(=O)N[C@@H](CCCNC(=N)N)C(=O)NC(C(=O)NCC(N)=O)CSCC(=O)N[C@@H](Cc2ccc(O)cc2)C(=O)N1C` (stereo partly drawn) [Example 10202] ({CH2CO}-Y[NMeNle]NPS[hSer]PW[Dap]W[NMeA][NMeA]R[ξC]G-NH2; thioether N-14), the IC50 under setting [1] fell in the range of 1 to 10 µM.
As to `CC(C)C[C@@H]1NC(=O)[C@H](Cc2ccc(O)cc2)NC(=O)[C@H](Cc2c[nH]c3ccccc23)NC(=O)[C@H]2CCCCN2C(=O)[C@H](Cc2ccc(O)cc2)NC(=O)[C@H](Cc2ccccc2)N(C)C(=O)[C@H](C(C)C)NC(=O)[C@H](CC(=O)O)NC(=O)[C@H]2CCCN2C(=O)[C@H](C)N(C)C(=O)[C@H](Cc2ccc(F)cc2)N(C)C(=O)[C@H](Cc2cc(F)c(F)c(F)c2)NC(=O)CSC[C@@H](C(=O)NCC(N)=O)NC1=O` [Example 10542] ({CH2CO}-[Phe(3,4,5-F3)][NMePhe(4-F)][NMeA][dP]DV[NMeF]Y[dPip]WYLCG-NH2; thioether N-13), the IC50 under setting [1] lay in the range of 0.001 to 0.0099 µM.
As to `CCCC[C@H]1C(=O)N2CCC[C@@H]2C(=O)N[C@@H](CC(=O)O)C(=O)N[C@@H](C(C)C)C(=O)N(C)[C@@H](Cc2ccccc2)C(=O)N[C@@H](CCC(=O)O)C(=O)N2CCOC[C@@H]2C(=O)N[C@@H](Cc2c[nH]c3ccccc23)C(=O)N[C@@H](Cc2ccc(O)cc2)C(=O)N[C@@H](CCCN)C(=O)N[C@H](C(=O)NCC(N)=O)CSCC(=O)N[C@@H](Cc2cc(F)c(F)c(F)c2)C(=O)N(C)[C@@H](Cc2ccc(F)cc2)C(=O)N1C` [Example 10596] ({CH2CO}-[Phe(3,4,5-F3)][NMePhe(4-F)][NMeNle][dP]DV[NMeF]E[X1]WY[Orn]CG-NH2; thioether N-13), the IC50 under setting [1] fell in the range of 0.001 to 0.0099 µM.
The same measure, in the same setting: the result for `CCCC[C@H]1C(=O)N2CCC[C@@H]2C(=O)N[C@@H](CC(=O)O)C(=O)N[C@@H](C(C)C)C(=O)N(C)[C@@H](C(C)CC)C(=O)N[C@@H](CCC(N)=O)C(=O)N2CCCC[C@@H]2C(=O)N[C@@H](Cc2c[nH]c3ccccc23)C(=O)N[C@@H](Cc2ccc(O)cc2)C(=O)N[C@@H](CCCN)C(=O)N[C@H](C(=O)NCC(N)=O)CSCC(=O)N[C@@H](Cc2ccc(F)cc2)C(=O)N(C)[C@@H](Cc2ccccc2)C(=O)N1C` (stereo partly drawn) [Example 9263] ({CH2CO}-[Phe(4-F)][NMeF][NMeNle][dP]DV[NMeIle(3ξ)]Q[dPip]WY[Orn]CG-NH2; thioether N-13) reads 1 to 10 µM.
As to `CC(C)C[C@@H]1NC(=O)[C@H](Cc2c[nH]cn2)NC(=O)[C@@H]2CCCN2C(=O)[C@H](CC(N)=O)NC(=O)[C@H](C)N(C)C(=O)[C@H](Cc2ccc(O)cc2)NC(=O)CSC[C@@H](C(=O)NCC(N)=O)NC(=O)[C@H](C)NC(=O)[C@H](CC(=O)O)N(C)C(=O)[C@H](CCCCN)N(C)C(=O)[C@H](Cc2c[nH]c3ccccc23)NC(=O)[C@H](CO)NC(=O)[C@H](Cc2c[nH]c3ccccc23)NC(=O)[C@@H]2C[C@@H](O)CN2C1=O` [Example 1534], the IC50 (read-out: HTRF Human PD-L1/PD-1 Binding Assay IC50) is 1 µM.
For `CCCC[C@H]1C(=O)N(C)[C@@H](CCCC)C(=O)N[C@@H](C)C(=O)N[C@H](C(=O)NCC(N)=O)CSCC(=O)N[C@@H](Cc2ccc(O)cc2)C(=O)N(C)[C@@H](C)C(=O)N[C@@H](CC(N)=O)C(=O)N2CCC[C@H]2C(=O)N[C@@H](Cc2cnc[nH]2)C(=O)N[C@@H](CCC(N)=O)C(=O)N2CCNC[C@H]2C(=O)N[C@@H](Cc2c[nH]c3ccccc23)C(=O)N[C@@H](CO)C(=O)N[C@@H](Cc2c[nH]c3ccccc23)C(=O)N1C` [Example 1278], the IC50 under setting [1] was 0.01 to 0.0999 µM.
On to `CCCC[C@H]1C(=O)N2CCC[C@@H]2C(=O)N[C@@H](CC(=O)O)C(=O)N[C@@H](C(C)C)C(=O)N(C)[C@@H](CC(C)C)C(=O)N[C@@H](Cc2ccc(O)cc2)C(=O)N2CCCC[C@@H]2C(=O)N[C@@H](Cc2c[nH]c3ccccc23)C(=O)N[C@@H](Cc2ccc(O)cc2)C(=O)N[C@@H](CC(C)C)C(=O)N[C@H](C(=O)NCC(N)=O)CSCC(=O)N[C@@H](Cc2ccc(F)cc2)C(=O)N(C)[C@@H](Cc2ccccc2)C(=O)N1C` [Example 9250] ({CH2CO}-[Phe(4-F)][NMeF][NMeNle][dP]DV[NMeL]Y[dPip]WYLCG-NH2; thioether N-13), for which the IC50 under setting [1] is 1 to 10 µM.
The same measure, in the same setting: the figure for `CCCC[C@H]1C(=O)N2C[C@H](O)C[C@@H]2C(=O)N2C[C@H](N)C[C@H]2C(=O)N[C@@H](C(C)C)C(=O)N(C)[C@@H](Cc2ccccc2)C(=O)N[C@@H](CCC(=O)O)C(=O)N2CCCC[C@@H]2C(=O)N[C@@H](Cc2c[nH]c3ccccc23)C(=O)N[C@@H](Cc2ccc(O)cc2)C(=O)N[C@@H](CC(C)C)C(=O)N[C@H](C(=O)NCC(N)=O)CSCC(=O)N[C@@H](Cc2cc(F)c(F)c(F)c2)C(=O)N(C)[C@@H](Cc2ccccc2)C(=O)N1C` [Example 3227] ({CH2CO}-[Phe(3,4,5-F3)][NMeF][NMeNle][d(cisHyp)][Pro(4R-NH2)]V[NMeF]E[dPip]WYLCG-NH2; thioether N-13) is 0.001 to 0.0099 µM; for `CCCC[C@H]1C(=O)N(C)[C@@H](CCCC)C(=O)NCC(=O)N[C@H](C(=O)NCC(N)=O)CSCC(=O)N[C@@H](Cc2ccc(O)cc2)C(=O)N(C)[C@@H](C)C(=O)N[C@@H](CC(N)=O)C(=O)N2CCC[C@H]2C(=O)N[C@@H](Cc2c[nH]cn2)C(=O)N[C@@H](CCC(N)=O)C(=O)N2C[C@H](O)C[C@H]2C(=O)N[C@@H](Cc2c[nH]c3ccccc23)C(=O)NCC(=O)N[C@@H](Cc2c[nH]c3ccccc23)C(=O)N1C` [Example 5198] ({CH2CO}-Y[NMeA]NPHQ[Hyp]WGW[NMeNle][NMeNle]GCG-NH2; thioether N-14) it is 0.01 to 0.0999 µM; for `CCCC[C@H]1C(=O)N2C[C@H](O)C[C@@H]2C(=O)N[C@@H](CC(=O)O)C(=O)N[C@@H](C(C)C)C(=O)N(C)[C@@H](Cc2ccccc2)C(=O)N[C@@H](Cc2ccc(O)cc2)C(=O)N2C[C@@H](O)C[C@@H]2C(=O)N[C@@H](Cc2c[nH]c3ccccc23)C(=O)N[C@@H](Cc2ccc(O)cc2)C(=O)N[C@@H](CCCN)C(=O)N[C@H](C(=O)NCC(N)=O)CSCC(=O)N[C@@H](Cc2cc(F)c(F)c(F)c2)C(=O)N(C)[C@@H](Cc2ccccc2)C(=O)N1C` [Example 9372] ({CH2CO}-[Phe(3,4,5-F3)][NMeF][NMeNle][d(cisHyp)]DV[NMeF]Y[dHyp]WY[Orn]CG-NH2; thioether N-13) it is 0.001 to 0.0099 µM.
Still for that read-out and setting: the figure for `CCCC[C@H]1C(=O)N(C)[C@@H](CCCC)C(=O)N[C@@H](C)C(=O)NC(C(=O)NCC(N)=O)CSCC(=O)N[C@@H](Cc2ccc(O)cc2)C(=O)N(C)[C@@H](C)C(=O)N[C@@H](CC(N)=O)C(=O)N2CCC[C@H]2C(=O)N[C@@H](CC(N)=O)C(=O)N[C@@H](CC(C)C)C(=O)N2CCC[C@H]2C(=O)N[C@@H](Cc2c[nH]c3ccccc23)C(=O)N[C@@H](CO)C(=O)N[C@@H](Cc2c[nH]c3ccccc23)C(=O)N1C` (stereo partly drawn) [Example 9132] ({CH2CO}-Y[NMeA]NPNLPWSW[NMeNle][NMeNle]A[ξC]G-NH2; thioether N-14) is 0.01 to 0.0999 µM.
For the compound `CCCC[C@H]1C(=O)N(C)[C@@H](CCCC)C(=O)N[C@@H](CCC(=O)O)C(=O)NC(C(=O)NCC(N)=O)CSCC(=O)N[C@@H](Cc2ccc(O)cc2)C(=O)N(C)[C@@H](C)C(=O)N[C@@H](CC(N)=O)C(=O)N2CCC[C@H]2C(=O)N[C@@H](Cc2c[nH]cn2)C(=O)N[C@@H](CC(N)=O)C(=O)N2CCC[C@H]2C(=O)N[C@@H](Cc2c[nH]c3ccccc23)C(=O)N[C@@H](CCO)C(=O)N[C@@H](Cc2c[nH]c3ccccc23)C(=O)N1C` (stereo partly drawn) [Example 9186] ({CH2CO}-Y[NMeA]NPHNPW[hSer]W[NMeNle][NMeNle]E[ξC]G-NH2; thioether N-14), the IC50 under setting [1] lay in the range of 0.01 to 0.0999 µM.
As to `CCCC[C@H]1C(=O)N(C)[C@@H](CCCC)C(=O)N[C@@H](CC(C)C)C(=O)N[C@H](C(N)=O)CSCC(=O)N[C@@H](Cc2ccc(O)cc2)C(=O)N(C)[C@@H](C)C(=O)N[C@@H](CC(N)=O)C(=O)N2CCC[C@H]2C(=O)N[C@@H](CN)C(=O)N[C@@H](CC(C)C)C(=O)N2C[C@H](O)C[C@H]2C(=O)N[C@@H]([C@@H](C)c2c[nH]c3ccccc23)C(=O)N[C@@H](CO)C(=O)N[C@@H](Cc2c[nH]c3ccccc23)C(=O)N1C` [Example 10532] ({CH2CO}-Y[NMeA]NP[Dap]L[Hyp][Trp(βS-Me)]SW[NMeNle][NMeNle]LC-NH2; thioether N-14), the IC50 under setting [1] fell in the range of 0.001 to 0.0099 µM.
